For 3 compounds, IC50 results are on record in patent US9340590B2 (priority 2011, dated 2016).

Positions of bridges follow the written chain, without caps; N, C: chain ends. Non-standard residues stand in square brackets, D forms with d. Residues, ends and D or L forms follow the SMILES beside them. Gly(octyl) = CCCCCCCC[C@H](N)C(=O)O; Tle = CC(C)(C)[C@H](N)C(=O)O; Nle = CCCC[C@H](N)C(=O)O

Holding throughout (test): cell-based
Assay [1] concerns the target hNav1.7 (Homo sapiens, UniProt Q15858). It is filed as cell-based. The note with it: IonWorks Quattro, use-dependent block, hNav1.7; read-out: IWQ Use Nav1.7.
Assay [2] has as its target hNav1.5 (Homo sapiens, UniProt Q14524). The note with it: IonWorks Quattro, use-dependent block, hNav1.5; read-out: IWQ Use Nav1.5.
For assay [3], the target named is hNav1.3 (Homo sapiens, UniProt Q9NY46). The note with it: IonWorks Quattro, use-dependent block, hNav1.3; read-out: IWQ Use Nav1.3.

hNav1.5, sequence (Q14524 whole entry, looked up): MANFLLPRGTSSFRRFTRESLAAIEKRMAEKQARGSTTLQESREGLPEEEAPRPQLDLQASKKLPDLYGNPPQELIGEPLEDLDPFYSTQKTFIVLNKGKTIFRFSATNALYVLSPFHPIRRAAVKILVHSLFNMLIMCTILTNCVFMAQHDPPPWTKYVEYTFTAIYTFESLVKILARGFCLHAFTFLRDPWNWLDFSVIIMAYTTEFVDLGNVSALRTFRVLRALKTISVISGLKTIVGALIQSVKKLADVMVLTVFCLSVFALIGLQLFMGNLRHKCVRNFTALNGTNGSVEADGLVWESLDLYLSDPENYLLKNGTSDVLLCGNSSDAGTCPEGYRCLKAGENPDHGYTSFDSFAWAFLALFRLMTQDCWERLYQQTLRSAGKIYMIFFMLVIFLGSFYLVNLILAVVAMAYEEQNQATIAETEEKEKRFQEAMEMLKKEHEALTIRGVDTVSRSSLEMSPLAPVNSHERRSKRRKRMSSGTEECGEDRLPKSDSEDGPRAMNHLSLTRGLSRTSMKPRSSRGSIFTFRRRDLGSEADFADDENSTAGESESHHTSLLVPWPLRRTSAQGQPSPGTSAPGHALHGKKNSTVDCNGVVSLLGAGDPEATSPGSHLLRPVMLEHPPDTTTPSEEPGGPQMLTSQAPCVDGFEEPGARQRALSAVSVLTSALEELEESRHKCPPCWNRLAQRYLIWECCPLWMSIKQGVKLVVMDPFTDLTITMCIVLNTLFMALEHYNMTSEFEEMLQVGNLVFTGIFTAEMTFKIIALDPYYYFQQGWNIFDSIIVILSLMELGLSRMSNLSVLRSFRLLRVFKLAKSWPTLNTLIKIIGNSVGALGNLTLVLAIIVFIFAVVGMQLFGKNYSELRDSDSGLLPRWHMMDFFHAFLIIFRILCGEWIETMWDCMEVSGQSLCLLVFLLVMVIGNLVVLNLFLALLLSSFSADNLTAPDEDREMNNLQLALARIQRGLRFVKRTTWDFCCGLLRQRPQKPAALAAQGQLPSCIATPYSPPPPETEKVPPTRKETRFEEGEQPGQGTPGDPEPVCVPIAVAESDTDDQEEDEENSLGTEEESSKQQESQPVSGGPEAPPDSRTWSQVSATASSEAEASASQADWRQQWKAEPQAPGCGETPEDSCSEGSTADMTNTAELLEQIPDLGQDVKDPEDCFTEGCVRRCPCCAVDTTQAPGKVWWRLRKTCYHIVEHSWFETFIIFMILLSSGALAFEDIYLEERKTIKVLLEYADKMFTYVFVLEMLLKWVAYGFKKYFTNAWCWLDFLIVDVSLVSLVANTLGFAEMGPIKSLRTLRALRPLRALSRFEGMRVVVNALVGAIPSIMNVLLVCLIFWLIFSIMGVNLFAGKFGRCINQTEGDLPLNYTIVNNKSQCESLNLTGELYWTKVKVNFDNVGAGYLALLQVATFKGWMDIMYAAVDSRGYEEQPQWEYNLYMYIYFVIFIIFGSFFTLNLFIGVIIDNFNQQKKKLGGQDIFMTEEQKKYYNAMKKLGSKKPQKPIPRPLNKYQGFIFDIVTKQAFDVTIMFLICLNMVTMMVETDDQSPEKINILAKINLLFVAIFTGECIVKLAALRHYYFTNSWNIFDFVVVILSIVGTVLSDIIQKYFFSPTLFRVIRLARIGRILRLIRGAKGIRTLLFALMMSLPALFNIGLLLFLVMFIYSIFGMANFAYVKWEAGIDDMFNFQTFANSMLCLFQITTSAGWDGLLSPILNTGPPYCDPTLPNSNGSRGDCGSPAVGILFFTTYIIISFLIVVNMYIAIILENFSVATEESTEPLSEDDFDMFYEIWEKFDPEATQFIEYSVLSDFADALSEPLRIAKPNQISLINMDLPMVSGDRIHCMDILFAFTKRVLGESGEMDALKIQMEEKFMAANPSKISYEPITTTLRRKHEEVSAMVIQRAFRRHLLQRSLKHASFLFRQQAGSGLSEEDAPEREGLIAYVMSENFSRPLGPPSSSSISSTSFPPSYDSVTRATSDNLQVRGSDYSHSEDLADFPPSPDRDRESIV
hNav1.7, sequence (Q15858 whole entry, looked up): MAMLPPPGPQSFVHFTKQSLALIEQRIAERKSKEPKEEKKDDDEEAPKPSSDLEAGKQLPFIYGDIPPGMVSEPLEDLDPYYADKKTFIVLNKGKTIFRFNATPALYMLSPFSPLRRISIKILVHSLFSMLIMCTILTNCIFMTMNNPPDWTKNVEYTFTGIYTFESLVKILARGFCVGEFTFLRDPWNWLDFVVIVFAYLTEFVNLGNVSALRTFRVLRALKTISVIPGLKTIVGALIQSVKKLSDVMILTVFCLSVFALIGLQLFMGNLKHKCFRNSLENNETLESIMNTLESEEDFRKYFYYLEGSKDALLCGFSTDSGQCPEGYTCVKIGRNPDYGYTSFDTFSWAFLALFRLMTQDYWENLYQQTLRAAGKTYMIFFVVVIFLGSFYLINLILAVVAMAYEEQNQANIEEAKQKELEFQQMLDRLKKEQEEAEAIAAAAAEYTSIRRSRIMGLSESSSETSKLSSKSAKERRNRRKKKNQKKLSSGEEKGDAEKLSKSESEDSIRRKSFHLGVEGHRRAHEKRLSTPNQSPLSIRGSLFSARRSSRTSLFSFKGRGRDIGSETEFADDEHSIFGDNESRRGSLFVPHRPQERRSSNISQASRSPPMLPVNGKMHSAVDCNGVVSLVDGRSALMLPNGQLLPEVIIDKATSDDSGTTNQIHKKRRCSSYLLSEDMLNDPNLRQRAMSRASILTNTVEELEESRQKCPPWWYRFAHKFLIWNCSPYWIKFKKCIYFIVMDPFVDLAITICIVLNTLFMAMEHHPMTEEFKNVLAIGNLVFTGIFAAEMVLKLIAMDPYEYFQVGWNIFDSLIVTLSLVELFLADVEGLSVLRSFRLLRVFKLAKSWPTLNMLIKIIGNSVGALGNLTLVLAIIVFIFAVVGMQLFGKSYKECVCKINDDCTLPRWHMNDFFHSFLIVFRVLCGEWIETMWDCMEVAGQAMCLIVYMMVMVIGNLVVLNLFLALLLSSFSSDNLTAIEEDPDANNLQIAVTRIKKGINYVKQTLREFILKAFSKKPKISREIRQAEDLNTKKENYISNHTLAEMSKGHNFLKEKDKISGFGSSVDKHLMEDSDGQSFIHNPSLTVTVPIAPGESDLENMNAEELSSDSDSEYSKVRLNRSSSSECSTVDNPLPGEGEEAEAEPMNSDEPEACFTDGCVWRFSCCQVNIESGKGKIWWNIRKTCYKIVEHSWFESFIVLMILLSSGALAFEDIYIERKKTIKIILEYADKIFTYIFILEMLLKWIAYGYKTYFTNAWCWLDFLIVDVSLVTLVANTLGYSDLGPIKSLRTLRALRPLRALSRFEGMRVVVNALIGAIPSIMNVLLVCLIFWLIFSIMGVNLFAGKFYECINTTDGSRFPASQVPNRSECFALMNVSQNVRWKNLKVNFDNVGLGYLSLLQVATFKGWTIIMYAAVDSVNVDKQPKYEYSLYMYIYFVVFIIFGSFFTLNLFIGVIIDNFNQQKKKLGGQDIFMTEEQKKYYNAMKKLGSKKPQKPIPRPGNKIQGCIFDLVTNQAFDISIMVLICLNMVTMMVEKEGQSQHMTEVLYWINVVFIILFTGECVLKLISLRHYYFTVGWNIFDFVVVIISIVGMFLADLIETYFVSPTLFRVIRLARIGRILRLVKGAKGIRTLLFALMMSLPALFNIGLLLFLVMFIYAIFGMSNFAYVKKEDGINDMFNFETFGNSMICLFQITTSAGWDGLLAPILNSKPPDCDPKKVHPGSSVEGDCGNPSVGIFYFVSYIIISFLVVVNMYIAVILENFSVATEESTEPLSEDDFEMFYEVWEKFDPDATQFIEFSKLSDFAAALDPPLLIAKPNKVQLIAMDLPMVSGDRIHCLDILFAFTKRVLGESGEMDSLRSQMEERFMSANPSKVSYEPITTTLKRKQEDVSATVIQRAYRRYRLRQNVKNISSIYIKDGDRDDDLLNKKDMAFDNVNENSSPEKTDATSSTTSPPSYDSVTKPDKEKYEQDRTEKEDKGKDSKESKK

Regarding `CCCC[C@@H]1NC(=O)CNC(=O)[C@H](CC(C)C)NC(=O)[C@@H](NC(=O)[C@@H](N)CC(=O)O)CSSC[C@@H]2NC(=O)[C@@H]3CSSC[C@@H](C(=O)N[C@@H](CCCCN)C(=O)N[C@@H](Cc4ccc(O)cc4)C(=O)N[C@H](C(=O)N[C@@H](Cc4ccccc4)C(N)=O)C(C)C)NC(=O)[C@H](Cc4c[nH]c5ccccc45)NC(=O)[C@H](CCCCN)NC(=O)[C@H](Cc4c[nH]cn4)NC(=O)[C@H]([C@@H](C)O)NC(=O)[C@H](CCCNC(=N)N)NC(=O)[C@H](CO)NC(=O)[C@H](CSSC[C@H](NC(=O)[C@H](CCCCN)NC(=O)[C@H](CCCNC(=N)N)NC(=O)[C@H](Cc4ccccc4)NC1=O)C(=O)N[C@@H]([C@@H](C)CC)C(=O)N1CCC[C@H]1C(=O)N[C@@H](CC(=O)O)C(=O)N[C@@H](CC(N)=O)C(=O)N[C@@H](CC(=O)O)C(=O)N[C@@H](CCCCN)C(=O)N3)NC(=O)[C@H](C(C)C)NC(=O)[C@H](CC(C)C)NC(=O)[C@H](CC(N)=O)NC(=O)[C@@H]1CCCN1C(=O)[C@H](CCCNC(=N)N)NC2=O` [compound 607] (H-DCLG[Nle]FRKCIPDNDKCCRPNLVCSRTHKWCKYVF-NH2; disulfide 2-17, 9-23, 16-30), the IC50 in assay [1] came to 0.016 µM; in assay [2], 11.3 µM; in assay [3], 0.067 µM.

Regarding `CCCCCCCC[C@@H]1NC(=O)CNC(=O)[C@H](CC(C)C)NC(=O)[C@@H](NC(=O)[C@@H](N)CC(=O)O)CSSC[C@@H]2NC(=O)[C@@H]3CSSC[C@@H](C(=O)N[C@@H](CCCCN)C(=O)N[C@@H](Cc4ccc(O)cc4)C(=O)N[C@H](C(=O)N[C@@H](Cc4ccccc4)C(N)=O)C(C)C)NC(=O)[C@H](Cc4c[nH]c5ccccc45)NC(=O)[C@H](CCCCN)NC(=O)[C@H](Cc4c[nH]cn4)NC(=O)[C@H]([C@@H](C)O)NC(=O)[C@H](CCCNC(=N)N)NC(=O)[C@H](CO)NC(=O)[C@H](CSSC[C@H](NC(=O)[C@H](CCCCN)NC(=O)[C@H](CCCNC(=N)N)NC(=O)[C@H](Cc4ccccc4)NC1=O)C(=O)N[C@@H]([C@@H](C)CC)C(=O)N1CCC[C@H]1C(=O)N[C@@H](CC(=O)O)C(=O)N[C@@H](CC(N)=O)C(=O)N[C@@H](CC(=O)O)C(=O)N[C@@H](CCCCN)C(=O)N3)NC(=O)[C@H](C(C)C)NC(=O)[C@H](CC(C)C)NC(=O)[C@H](CC(N)=O)NC(=O)[C@@H]1CCCN1C(=O)[C@H](CCCNC(=N)N)NC2=O` [compound 608] (H-DCLG[Gly(octyl)]FRKCIPDNDKCCRPNLVCSRTHKWCKYVF-NH2; disulfide 2-17, 9-23, 16-30), the results for the IC50 in assay [1], in assay [2] and in assay [3] were 11.3 µM, 20.2 µM and 21.8 µM, respectively.

`CC[C@H](C)[C@@H]1NC(=O)[C@@H]2CSSC[C@@H]3NC(=O)[C@H](C(C)C)NC(=O)[C@H](CC(C)C)NC(=O)[C@H](CC(N)=O)NC(=O)[C@@H]4CCCN4C(=O)[C@H](CCCNC(=N)N)NC(=O)[C@H](CSSC[C@H](NC(=O)[C@@H](N)CC(=O)O)C(=O)N[C@@H](CC(C)C)C(=O)NCC(=O)N[C@@H](C(C)(C)C)C(=O)N[C@@H](Cc4ccccc4)C(=O)N[C@@H](CCCNC(=N)N)C(=O)N[C@@H](CCCCN)C(=O)N2)NC(=O)[C@H](CSSC[C@@H](C(=O)N[C@@H](CCCCN)C(=O)N[C@@H](Cc2ccc(O)cc2)C(=O)N[C@H](C(=O)N[C@@H](Cc2ccccc2)C(N)=O)C(C)C)NC(=O)[C@H](Cc2c[nH]c4ccccc24)NC(=O)[C@H](CCCCN)NC(=O)[C@H](Cc2c[nH]cn2)NC(=O)[C@H]([C@@H](C)O)NC(=O)[C@H](CCCNC(=N)N)NC(=O)[C@H](CO)NC3=O)NC(=O)[C@H](CCCCN)NC(=O)[C@H](CC(=O)O)NC(=O)[C@H](CC(N)=O)NC(=O)[C@H](CC(=O)O)NC(=O)[C@@H]2CCCN2C1=O` [compound 609] (H-DCLG[Tle]FRKCIPDNDKCCRPNLVCSRTHKWCKYVF-NH2; disulfide 2-17, 9-23, 16-30): the figures for the IC50 in assay [1], in assay [2] and in assay [3] were 0.081 µM, 6.7 µM and 0.26 µM, respectively.
